# Like-named read-outs stand apart in the source and are kept apart here.
# Columns and labels:
# [1] = test system: patients with Rheumatoid Arthritis; test: Morning stiffness and swollen joints in patients with Rheumatoid Arthritis treated with M-Trex (Example-6); type: in vivo, human
# From the text: MS (Morning Stiffness); S. Joints (Swollen Joints) were remarkably responsive to M-Trex therapy. Stiffness exacerbates Pain especially in joints by virtue of inflexibility and reduction is blood circulation. Swelling of joints is secondary to inflammation caused by autoimmune response in patients with Rheumatoid Arthritis. […] The initial numbers represents the values at the start of the study before the treatment and the remaining four numbers are values determined during each visit while taking M-Trex medication.
# In joints stiffness (duration measured in minutes as above) is caused by inflammation of the synovium that lines the joint. Inflammation due to bone spurs as in Oesteo-arthritis causes Pain. Thus reduction of stiffness reduces the severity of inflammation and Pain. Abnormal tissue growth characterized by benign and malignant neoplasms cause stiffness due to compression of tissues, interfering with blood flow and irritation of the autonomic nervous system. Metabolism blocked antifolates are shown to be capable of decompression of tissues by interfering with tissue growth as shown in Examples 4, 5 and 6. These examples establish that metabolism blocked antifolates can decompress cancer tissues and ameliorate cancer pain.
# [2] = Laboratory values (toxicity) of Rheumatoid Arthritis patients on M-Trex; type: in vivo, human; details: M-Trex 7.5 mg per day; for CREATININE / GLUCOSE / SGOT / ALK. PHOSPHAT / SGTP / HEMOGLOB: RA patients; for ALK. PHOSPHAT / SGTP: in U/L (unit assumed); for HEMOGLOB: in g/dL (unit assumed)
# C-Reactive Protein (CRP) [3] = test system: C-Reactive Protein (CRP); design: unit not given here; details: RA patients on therapy with M-Trex, cited from earlier work
# Allergic Rabbits = details: allergen induced; cited from earlier work
# HCT 29 (Colon Cancer) = test: Growth inhibition of human tumor cells in culture (NCI); type: cell-based
# From the text: (§1) The preceding data collected at the National Cancer Institute summarize the ability of M-Trex to inhibit 50% of the growth of selected tumor cells in culture. The values are expressed as Log10 GI50 values all of which are lower than 10^−8M. In the same table a comparison is made of the respective values of TGI (Total Growth Inhibition) for M-Trex and MTX. […] In addition, the Log10 GI50 values of M-Trex was lower than −8.00 for the following cell lines: NSCLC, A549/ATCC and NCI H23; Colon Cancer, HCT 116, HCT 29 and SW 620; CNS Cancer, SF 268; Melanoma M 14 and UACC 62; Ovarian Cancer, OVCAR-8; Renal Cancer, ACHN, CAKI-1, SN 12C, and UO 31; Prostate Cancer, PC 3 and Breast cancer, MDA-MB-435 and MDA-N. The MG_MID value of MTX for all 49 human tumor cell lines evaluated at NCI-DTP program was −7.05. […] The tumors and sarcomas are solid while leukemia and lymphoma are liquid tumors.
# RPMI 8226 (Leukemia) = test: as above; type: cell-based; details: logarithmic value
# From the text: as §1
# CAKI-1 (Renal Cancer) = test: as above; type: cell-based
# From the text: as §1
# [4] = Toxicity (maximum tolerated dose, weight loss) in nude mice bearing HCT-8 xenograft; type: in vivo; details: i.v. push daily × 5 in nude mice
# [5] = test system: Human HCT-8 Colon Xenograft; test: Antitumor activity in nude mice bearing human HCT-8 colon xenograft (Example-4); type: in vivo; details: i.v. push daily × 5 at maximum tolerated dose (M-Trex 4.0, MTX 1.0 mg/kg/day)
# From the text: There are three general accepted methods for the evaluation of Pain in patients suffering from a number of diseases. They are Visual Analog Scale (VAS); Numeric rating Scale (NRS) and Verbal Categorical Rating Scale […]. Of these three assessment methods VAS is considered to be most reliable in a majority of cases to evaluate and quantify the magnitude of the perception of Pain. Clinical trials conducted by Castaneda and Nair used VAS to assess pain intensity in RA patients receiving 10-DAAM in one trial [G. Alarcon, O. Castaneda, W. J. Koopman, C. L. Krumdieck, and M. G. Nair. U.S. Pat. No. 5,030,634 (1991)] and M-Trex (CH-1504) in another trial conducted separately. Almost all cases of cancer Pain is due to tissue inflammation, tissue compression and tissue damage secondary to rapid proliferation of cells. Therefore any therapeutic intervention that shrinks proliferating tissues can bring about significant reduction in Pain. Shown below is the efficacy of M-Trex in shrinking human colon cancer transplanted and growing in nude mice.
# C-Reactive Protein (CRP) [6] = test: Plasma CRP levels of patients on therapy with M-Trex for Rheumatoid Arthritis (Example-2); type: in vivo, human; details: arthritic patients taking M-Trex, clinical study by Castaneda and Nair
# From the text: Coronary Heart Disease (CHD), Cardio-vascular diseases (CVD) and Stroke are of the same generic species by virtue of Inflammation being the common underlying cause of their occurrence. In fact an article by the American Heart Association entitled “Inflammation, Heart Disease and Stroke. The role of C-Reactive Protein” stressed that markers of Inflammation are more accurate and reliable predictive factors than total cholesterol levels in humans. [www.americanheart.org/presenter.jhtml?presenter=4648]. The most accurate predictive factor for the incidence of CHD, CVD and stroke is elevated levels of C-Reactive Protein (CRP).
# [7] = first visit while taking M-Trex
# [8] = fourth visit while taking M-Trex
# [9] = second visit while taking M-Trex
# [10] = start of the study before the treatment
# [11] = third visit while taking M-Trex
smiles,measurement,setting,value
"C=C(CC(NC(=O)c1ccc(CCc2ccc3nc(N)nc(N)c3c2)cc1)C(=O)O)C(=O)O (centres unmarked) [M-Trex, 4′-methylene-5,8-10-trideazaaminopterin]","MS (Morning Stiffness), duration",[1]; [7],26′ minutes
same,S. Joints (number of Swollen Joints),[1]; [7],5.6
same,"MS (Morning Stiffness), duration",[1]; [8],14′ minutes
same,S. Joints (number of Swollen Joints),[1]; [8],2.9
same,"MS (Morning Stiffness), duration",[1]; [9],22′ minutes
same,S. Joints (number of Swollen Joints),[1]; [9],3.5
same,"MS (Morning Stiffness), duration",[1]; [10],99′ minutes
same,S. Joints (number of Swollen Joints),[1]; [10],12.5
same,"MS (Morning Stiffness), duration",[1]; [11],20′ minutes
same,S. Joints (number of Swollen Joints),[1]; [11],3.0
same,CREATININE,[2]; VISIT 2,0.79 mg/dL
same,GLUCOSE,[2]; VISIT 2,83.8 mg/dL
same,SGOT,[2]; VISIT 2,14.6 U/L
same,ALK. PHOSPHAT,[2]; VISIT 2,107.75
same,SGTP,[2]; VISIT 2,17.75
same,HEMOGLOB,[2]; VISIT 2,11.77
same,CREATININE,[2]; VISIT 3,0.95 mg/dL
same,GLUCOSE,[2]; VISIT 3,95 mg/dL
same,SGOT,[2]; VISIT 3,16 U/L
same,ALK. PHOSPHAT,[2]; VISIT 3,86
same,SGTP,[2]; VISIT 3,17
same,HEMOGLOB,[2]; VISIT 3,12.43
same,CREATININE,[2]; VISIT 4,0.85 mg/dL
same,GLUCOSE,[2]; VISIT 4,87.5 mg/dL
same,SGOT,[2]; VISIT 4,16 U/L
same,ALK. PHOSPHAT,[2]; VISIT 4,89.3
same,SGTP,[2]; VISIT 4,25
same,HEMOGLOB,[2]; VISIT 4,12.18
same,CREATININE,[2]; VISIT 5,0.85 mg/dL
same,GLUCOSE,[2]; VISIT 5,88.1 mg/dL
same,SGOT,[2]; VISIT 5,17.3 U/L
same,ALK. PHOSPHAT,[2]; VISIT 5,87.1
same,SGTP,[2]; VISIT 5,20
same,HEMOGLOB,[2]; VISIT 5,12.26
same,CREATININE,[2]; VISIT 6,0.92 mg/dL
same,GLUCOSE,[2]; VISIT 6,92.4 mg/dL
same,SGOT,[2]; VISIT 6,14.9 U/L
same,ALK. PHOSPHAT,[2]; VISIT 6,85.42
same,SGTP,[2]; VISIT 6,18.21
same,HEMOGLOB,[2]; VISIT 6,12.56
same,CREATININE,[2]; VISIT 7,0.84 mg/dL
same,GLUCOSE,[2]; VISIT 7,90.3 mg/dL
same,SGOT,[2]; VISIT 7,15.2 U/L
same,ALK. PHOSPHAT,[2]; VISIT 7,86.5
same,SGTP,[2]; VISIT 7,18
same,HEMOGLOB,[2]; VISIT 7,12.48
same,Toxicity according to laboratory values,[2]; patients with Rheumatoid Arthritis,not associated with any measurable toxicity
same,Plasma CRP Levels,C-Reactive Protein (CRP) [3]; visit at 4 weeks,22.1
same,Plasma CRP Levels,C-Reactive Protein (CRP) [3]; visit at 8 weeks,20.7
same,Plasma CRP Levels,C-Reactive Protein (CRP) [3]; visit at 12 weeks,17.7
same,Plasma CRP Levels,C-Reactive Protein (CRP) [3]; visit at 16 weeks,13.6
same,Asthmatic Response Early,Allergic Rabbits,52
same,Asthmatic Response Late,Allergic Rabbits,58
same,BHR (Bronchial Hyper-Responsiveness),Allergic Rabbits,47
same,Log10 GI50,HCT 29 (Colon Cancer),lower than −8.00
same,TGI (Total Growth Inhibition),RPMI 8226 (Leukemia),−7.44
same,Log10 GI50,CAKI-1 (Renal Cancer),lower than −8.00
same,Maximum Tolerated dose,[4],M-Trex (4.0 mg/kg/day)
same,"MTGI, Maximum Tumor Growth Inhibition (% of control)","[5]; nude mice, HCT-8 xenograft",91.4 ± 2.2%
same,"Tumor doubling time, treated/control (%)","[5]; nude mice, HCT-8 xenograft",623.08%
same,"TD, Tumor Doubling Time",[5]; control 2.6 ± 0.8 days,16.2 ± 3.2 days
same,Change of CRP levels (in words),C-Reactive Protein (CRP) [6],significant and consistent reduction
